In PMC7697191, “Identification of Novel Influenza Polymerase PB2 Inhibitors Using a Cascade Docking Virtual Screening Approach” (Molecules, 2020):

Columns and labels:
H1N1 PB2 CBD = H1N1 PB2 CBD (Influenza A virus, UniProt P03427); test: SPR binding assay on immobilized H1N1 PB2 CBD; parameters: species or system influenza A/WSN/1933 (H1N1); details: Biacore T200, CM5 chip, affinity binding model
in vitro = details: dog
[1] = test system: A/Hong Kong/8/68 (HK/68, H3N2); format: cell-based; details: MDCK cells, CPE inhibition

H1N1 PB2 CBD, sequence (P03427 318-486 limits assumed): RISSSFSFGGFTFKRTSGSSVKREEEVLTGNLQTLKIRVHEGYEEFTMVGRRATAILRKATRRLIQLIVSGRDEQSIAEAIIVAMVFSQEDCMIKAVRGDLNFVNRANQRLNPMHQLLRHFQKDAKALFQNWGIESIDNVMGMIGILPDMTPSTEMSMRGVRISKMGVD

Structure (SMILES) | Kd (H1N1 PB2 CBD) | CC50 at 72 h (in vitro) | activity against the A/Hong Kong/8/68 (HK/68, H3N2) strain, in words [1]
Cc1c(-c2ccccc2F)[nH]c2ccc(CNC(=O)CCc3cc(O)no3)cc12 [11C5] | 2260 nM | > 100000 nM | –
Cc1cc(CN2CCOc3c(O)cc(-c4ccccc4Cl)cc3C2)on1 [11C6] | 1700 nM | > 100000 nM | –
O=C(NCc1nc(C2CCCCC2)no1)c1cc(-c2ccccc2F)n[nH]1 [11C8] | 6160 nM | > 100000 nM | –
c1csc(CNc2nc3nonc3nc2NCCCN2CCOCC2)c1 [11D2] | 210 nM | > 100000 nM | –
C=CCn1cc(CNCc2noc(-c3ccc4c(c3)OCO4)n2)c(C)n1 [11D4] | 1870 nM | > 100000 nM | –
c1cc(Cn2ccnc2-c2nc3c(s2)CCCC3)cc(-c2nnn[nH]2)c1 [12B1] | 6770 nM | > 100000 nM | –
C=CCn1cc(-c2cc(-c3ccc(C(=O)O)cc3)[nH]c(=N)c2C#N)cn1 [12C5] | 2440 nM | > 100000 nM | –
NS(=O)(=O)CCCC(=O)NCc1ccc2[nH]c3c(c2c1)CCCCCC3 [13D7] | 1130 nM | > 100000 nM | –
CCSc1ncc(-c2cc(-c3c(C)nn(C)c3C)nc(N)c2C#N)cn1 [21A5] | 540 nM | > 100000 nM | –
Cc1cccnc1CCNc1nc2nonc2nc1NCc1cccs1 [21B1] | 1950 nM | > 100000 nM | no activity
CCC(CC)O[C@@H]1C=C(C(=O)O)C[C@H](N)[C@H]1NC(C)=O [OC, Oseltamivir carboxylate, reference compound] | – | > 100000 nM | –
O=C(O)[C@H]1C2CCC(CC2)[C@@H]1Nc1nc(-c2c[nH]c3ncc(F)cc23)ncc1F [VX-787, reference compound] | 54 nM | > 100000 nM | –
